The source of these data is BindingDB's records for doi:10.1124/jpet.102.047092 (Case Western Reserve University, 2003).

Targets include Histamine H2 receptor (Homo sapiens, UniProt P25021); Histamine H4 receptor (Homo sapiens, UniProt Q9H3N8); Histamine H1 receptor (Homo sapiens, UniProt P35367); Nischarin (Rattus norvegicus, UniProt Q4G017); Cannabinoid receptor 1 (Rattus norvegicus, UniProt P20272).
The target in assay [1] is Metabotropic glutamate receptor 8 (Rattus norvegicus, UniProt P70579).
For assay [2], the target named is Metabotropic glutamate receptor 6 (Rattus norvegicus, UniProt P35349).
Assay [3] concerns the target Beta-1 adrenergic receptor (Rattus norvegicus, UniProt P18090).
For assay [4], the target named is Neuronal acetylcholine receptor subunit alpha-4 (Rattus norvegicus, UniProt P09483).
Assay [5] addresses Metabotropic glutamate receptor 1 (Rattus norvegicus, UniProt P23385).
Assay [6] has as its target Metabotropic glutamate receptor 4 (Rattus norvegicus, UniProt P31423).
Assay [7] has as its target Neuronal acetylcholine receptor subunit alpha-2 (Homo sapiens, UniProt Q15822).
The target of assay [8] is Metabotropic glutamate receptor 2 (Rattus norvegicus) (UniProt P31421).
In assay [9] the target is Neuronal acetylcholine receptor subunit alpha-3 (Homo sapiens, UniProt P32297).
The target of assay [10] is Voltage-dependent L-type calcium channel subunit alpha-1C (Rattus norvegicus, UniProt P22002).
The target of assay [11] is Metabotropic glutamate receptor 5 (Rattus norvegicus, UniProt P31424).
In assay [12] the target is Neuronal acetylcholine receptor subunit alpha-4 (Homo sapiens, UniProt P43681).
Sequence of Neuronal acetylcholine receptor subunit alpha-4 (Homo sapiens, UniProt P43681) (P43681 whole entry): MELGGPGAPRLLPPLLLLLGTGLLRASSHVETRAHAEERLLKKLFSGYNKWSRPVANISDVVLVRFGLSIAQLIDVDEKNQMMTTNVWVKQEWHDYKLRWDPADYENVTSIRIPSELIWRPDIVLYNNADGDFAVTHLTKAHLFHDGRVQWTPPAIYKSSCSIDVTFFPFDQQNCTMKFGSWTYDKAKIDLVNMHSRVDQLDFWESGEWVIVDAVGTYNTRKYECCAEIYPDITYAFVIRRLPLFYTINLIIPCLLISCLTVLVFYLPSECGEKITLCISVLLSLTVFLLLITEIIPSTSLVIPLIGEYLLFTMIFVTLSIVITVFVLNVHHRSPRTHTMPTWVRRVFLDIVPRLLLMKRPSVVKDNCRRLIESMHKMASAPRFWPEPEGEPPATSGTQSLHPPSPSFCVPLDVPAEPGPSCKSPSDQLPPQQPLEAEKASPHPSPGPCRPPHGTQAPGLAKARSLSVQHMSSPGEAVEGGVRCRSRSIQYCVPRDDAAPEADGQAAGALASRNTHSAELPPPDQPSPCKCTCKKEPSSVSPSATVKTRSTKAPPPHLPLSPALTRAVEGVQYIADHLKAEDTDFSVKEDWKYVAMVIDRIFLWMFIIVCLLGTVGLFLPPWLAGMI

Sequence of Metabotropic glutamate receptor 8 (P70579 whole entry): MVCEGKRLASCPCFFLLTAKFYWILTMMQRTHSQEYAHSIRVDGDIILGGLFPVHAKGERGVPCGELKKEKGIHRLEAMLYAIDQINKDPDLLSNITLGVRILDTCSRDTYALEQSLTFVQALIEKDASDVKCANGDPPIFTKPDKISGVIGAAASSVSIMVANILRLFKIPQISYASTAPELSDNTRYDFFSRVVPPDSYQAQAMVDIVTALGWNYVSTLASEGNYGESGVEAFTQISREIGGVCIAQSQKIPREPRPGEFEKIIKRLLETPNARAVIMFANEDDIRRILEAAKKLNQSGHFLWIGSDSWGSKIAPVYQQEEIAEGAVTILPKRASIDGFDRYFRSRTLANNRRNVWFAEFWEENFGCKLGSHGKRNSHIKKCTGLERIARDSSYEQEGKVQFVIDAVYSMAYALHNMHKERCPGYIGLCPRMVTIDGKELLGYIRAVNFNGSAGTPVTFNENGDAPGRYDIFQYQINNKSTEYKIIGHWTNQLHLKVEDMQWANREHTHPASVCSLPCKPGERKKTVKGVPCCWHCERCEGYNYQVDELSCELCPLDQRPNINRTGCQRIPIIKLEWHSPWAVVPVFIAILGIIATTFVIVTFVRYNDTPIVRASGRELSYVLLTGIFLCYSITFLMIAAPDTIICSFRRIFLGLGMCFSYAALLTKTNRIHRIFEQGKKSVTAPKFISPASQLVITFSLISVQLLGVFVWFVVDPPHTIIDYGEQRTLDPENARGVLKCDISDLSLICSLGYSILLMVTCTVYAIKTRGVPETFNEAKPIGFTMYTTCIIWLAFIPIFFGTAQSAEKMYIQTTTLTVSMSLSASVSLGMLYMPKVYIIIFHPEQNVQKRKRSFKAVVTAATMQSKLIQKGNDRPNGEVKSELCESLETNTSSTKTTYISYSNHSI
Sequence of Metabotropic glutamate receptor 6 (P35349 whole entry): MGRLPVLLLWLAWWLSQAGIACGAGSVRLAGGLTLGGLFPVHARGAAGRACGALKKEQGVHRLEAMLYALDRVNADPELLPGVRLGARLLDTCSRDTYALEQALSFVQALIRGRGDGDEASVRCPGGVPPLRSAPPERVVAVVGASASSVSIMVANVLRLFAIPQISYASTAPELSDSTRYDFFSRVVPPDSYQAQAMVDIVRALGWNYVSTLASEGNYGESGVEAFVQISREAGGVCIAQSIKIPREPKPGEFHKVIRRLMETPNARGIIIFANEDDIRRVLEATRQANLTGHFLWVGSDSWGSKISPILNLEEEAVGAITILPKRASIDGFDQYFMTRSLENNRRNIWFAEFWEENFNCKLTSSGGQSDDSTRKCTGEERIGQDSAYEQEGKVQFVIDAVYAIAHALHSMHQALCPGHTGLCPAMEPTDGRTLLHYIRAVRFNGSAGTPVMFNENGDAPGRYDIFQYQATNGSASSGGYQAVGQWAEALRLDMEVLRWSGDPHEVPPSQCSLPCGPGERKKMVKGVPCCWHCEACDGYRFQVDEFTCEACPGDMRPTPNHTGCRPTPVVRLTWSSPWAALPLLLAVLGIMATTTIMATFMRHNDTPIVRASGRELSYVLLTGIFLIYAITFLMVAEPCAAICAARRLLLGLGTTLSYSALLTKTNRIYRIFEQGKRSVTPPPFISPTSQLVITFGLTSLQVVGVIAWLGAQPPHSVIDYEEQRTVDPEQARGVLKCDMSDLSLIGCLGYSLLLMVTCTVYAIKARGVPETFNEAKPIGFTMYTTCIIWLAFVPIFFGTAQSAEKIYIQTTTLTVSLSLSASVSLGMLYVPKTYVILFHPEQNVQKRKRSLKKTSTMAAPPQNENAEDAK
Sequence of Metabotropic glutamate receptor 2 (Rattus norvegicus) (P31421 whole entry, looked up): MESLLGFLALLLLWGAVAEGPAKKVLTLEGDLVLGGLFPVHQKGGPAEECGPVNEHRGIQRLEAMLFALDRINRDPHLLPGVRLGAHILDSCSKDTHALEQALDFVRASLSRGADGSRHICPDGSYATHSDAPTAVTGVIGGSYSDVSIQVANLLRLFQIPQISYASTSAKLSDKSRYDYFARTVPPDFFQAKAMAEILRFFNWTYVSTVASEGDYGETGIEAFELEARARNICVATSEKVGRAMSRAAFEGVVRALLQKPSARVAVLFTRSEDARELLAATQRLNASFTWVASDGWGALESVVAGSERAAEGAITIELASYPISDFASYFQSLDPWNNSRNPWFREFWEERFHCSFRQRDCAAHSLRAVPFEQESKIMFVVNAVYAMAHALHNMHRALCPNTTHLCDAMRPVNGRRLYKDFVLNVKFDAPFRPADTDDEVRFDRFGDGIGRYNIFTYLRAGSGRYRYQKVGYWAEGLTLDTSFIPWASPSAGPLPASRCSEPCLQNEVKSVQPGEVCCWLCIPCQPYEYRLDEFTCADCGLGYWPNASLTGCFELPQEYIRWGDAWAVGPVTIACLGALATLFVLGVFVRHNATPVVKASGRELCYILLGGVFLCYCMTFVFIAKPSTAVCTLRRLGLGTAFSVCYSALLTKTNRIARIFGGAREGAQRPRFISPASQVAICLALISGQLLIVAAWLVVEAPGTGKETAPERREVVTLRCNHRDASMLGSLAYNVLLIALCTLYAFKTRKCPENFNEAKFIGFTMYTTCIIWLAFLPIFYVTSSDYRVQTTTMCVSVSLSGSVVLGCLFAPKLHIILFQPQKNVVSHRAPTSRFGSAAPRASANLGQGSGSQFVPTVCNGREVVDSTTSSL
Sequence of Neuronal acetylcholine receptor subunit alpha-4 (Rattus norvegicus, UniProt P09483) (P09483 whole entry): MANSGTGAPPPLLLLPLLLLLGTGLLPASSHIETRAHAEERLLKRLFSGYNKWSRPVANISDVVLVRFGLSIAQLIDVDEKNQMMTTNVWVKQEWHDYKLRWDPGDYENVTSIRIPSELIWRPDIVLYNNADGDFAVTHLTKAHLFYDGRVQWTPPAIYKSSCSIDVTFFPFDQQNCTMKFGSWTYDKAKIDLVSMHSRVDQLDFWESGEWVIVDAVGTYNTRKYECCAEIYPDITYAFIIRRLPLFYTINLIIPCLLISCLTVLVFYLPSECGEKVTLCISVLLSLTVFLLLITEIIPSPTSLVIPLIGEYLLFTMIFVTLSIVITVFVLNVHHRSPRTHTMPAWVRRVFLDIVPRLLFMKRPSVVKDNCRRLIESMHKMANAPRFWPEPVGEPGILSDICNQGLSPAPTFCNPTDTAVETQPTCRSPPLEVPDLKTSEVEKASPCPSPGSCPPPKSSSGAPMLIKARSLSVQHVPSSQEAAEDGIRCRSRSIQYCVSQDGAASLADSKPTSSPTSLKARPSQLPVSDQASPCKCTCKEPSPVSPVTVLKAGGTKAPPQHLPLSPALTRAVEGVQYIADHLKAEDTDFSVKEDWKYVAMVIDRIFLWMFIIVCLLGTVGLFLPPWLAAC
Sequence of Beta-1 adrenergic receptor (P18090 whole entry): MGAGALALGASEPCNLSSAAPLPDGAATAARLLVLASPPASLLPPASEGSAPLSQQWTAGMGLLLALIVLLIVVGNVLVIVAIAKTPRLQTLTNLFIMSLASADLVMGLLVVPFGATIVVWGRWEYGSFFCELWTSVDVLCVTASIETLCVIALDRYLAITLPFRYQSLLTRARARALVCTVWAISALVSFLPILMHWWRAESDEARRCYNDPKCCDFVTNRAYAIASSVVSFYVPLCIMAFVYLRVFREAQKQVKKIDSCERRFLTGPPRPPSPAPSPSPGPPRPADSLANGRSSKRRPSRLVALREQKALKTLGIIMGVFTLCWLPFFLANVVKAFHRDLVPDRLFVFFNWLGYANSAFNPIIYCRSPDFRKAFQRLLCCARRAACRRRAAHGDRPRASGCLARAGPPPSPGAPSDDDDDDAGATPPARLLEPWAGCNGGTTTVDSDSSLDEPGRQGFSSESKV
Sequence of Histamine H2 receptor (P25021 whole entry): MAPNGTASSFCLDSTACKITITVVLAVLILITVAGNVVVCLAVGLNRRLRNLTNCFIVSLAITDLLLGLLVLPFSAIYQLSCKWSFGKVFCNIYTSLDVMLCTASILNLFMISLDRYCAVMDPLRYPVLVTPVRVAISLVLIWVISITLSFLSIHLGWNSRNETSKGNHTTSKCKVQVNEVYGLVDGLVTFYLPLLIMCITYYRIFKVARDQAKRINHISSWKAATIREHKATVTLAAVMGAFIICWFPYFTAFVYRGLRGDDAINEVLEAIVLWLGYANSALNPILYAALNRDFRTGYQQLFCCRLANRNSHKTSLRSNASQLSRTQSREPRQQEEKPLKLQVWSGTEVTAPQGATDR

Consider `N[C@@H](CCP(=O)(O)O)C(=O)O`, for which the figures for the EC50 in assay [1] and in assay [2] were 1.26 µM and 0.398 µM, respectively.

Regarding `N[C@@H](CCS(=O)(=O)O)C(=O)O` [L-homocysteic acid], the Ki (on Histamine H2 receptor; in [3]; in assay [4]; at Histamine H4 receptor; at Histamine H1 receptor; in assay [7]) was more than 10 µM each time. The Ki (at Nischarin; in assay [9]; in [10]; on Cannabinoid receptor 1; in [12]) was more than 10 µM each time. In addition, the EC50 is more than 10 µM in assay [1]; more than 10 µM in assay [5]; more than 10 µM in assay [6]; 7.94 µM in assay [2]; more than 10 µM in assay [8]; 6.31 µM in assay [11].

As usually defined, the EC50 is the concentration at which the effect is half-maximal. For orientation: Ki means a measure of affinity in units of concentration, obtained from inhibition or displacement.
